Tested on: patients with fasting triglyceride levels >200 mg/dl and <500 mg/dl despite statin therapy
Test: 12-week study: lipid profile (TC, LDL-C, HDL-C, non-HDL-C, VLDL-C, VLDL-TG, RLP-C)
Assay type: in vivo, human
Settings: for Non-HDL-C, Diff from pbo (Hodges-Lehmann median difference) / Non-HDL-C, EOT (Week 12 endpoint) median / LDL-C Median % chg from BL / LDL-C, Diff from pbo (Hodges-Lehmann median difference) / LDL-C, EOT (Week 12 endpoint) median / Non-HDL-C Median % chg from BL / LDL-C Diff from pbo (median % chg, Hodges-Lehmann) / LDL-C EOT Median / Non-HDL-C Diff from pbo (median % chg, Hodges-Lehmann) / Non-HDL-C EOT Median: AMR 101 4 g + statin
Description: Parameters (a)-(z) can be measured in accordance with any clinically acceptable methodology. For example, triglycerides, total cholesterol, HDL-C and fasting blood sugar can be sample from serum and analyzed using standard photometry techniques. VLDL-TG, LDL-C and VLDL-C can be calculated or determined using serum lipoprotein fractionation by preparative ultracentrifugation and subsequent quantitative analysis by refractometry or by analytic ultracentrifugal methodology. Apo A1, Apo B and hsCRP can be determined from serum using standard nephelometry techniques. Lipoprotein (a) can be determined from serum using standard turbidimetric immunoassay techniques. LDL particle number and particle size can be determined using nuclear magnetic resonance (NMR) spectrometry. Remnants lipoproteins and LDL-phospholipase A2 can be determined from EDTA plasma or serum and serum, respectively, using enzymatic immunoseparation techniques. Oxidized LDL, intercellular adhesion molecule-1 and interleukin-2 levels can be determined from serum using standard enzyme immunoassay techniques. These techniques are described in detail in standard textbooks, for example Tietz Fundamentals of Clinical Chemistry, 6th Ed. (Burtis, Ashwood and Borter Eds.), WB Saunders Company.
A multi-center, placebo-controlled, randomized, double-blind, 12-week study was performed to evaluate the efficacy and safety of >96% E-EPA in patients with fasting triglyceride levels >200 mg/dl and <500 mg/dl despite statin therapy (the mean of two qualifying entry values needed to be >185 mg/dl and at least one of the values needed to be >200 mg/dl). The primary objective of the study was to determine the efficacy of >96% E-EPA 2 g daily and 4 g daily, compared to placebo, in lowering fasting TG levels in patients with high risk for cardiovascular disease and with fasting TG levels 200 mg/dl and <500 mg/dl, despite treatment to LDL-C goal on statin therapy.
The secondary objectives of this study were the following: • 1. To determine the safety and tolerability of >96% E-EPA 2 g daily and 4 g daily; • 2. To determine the effect of >96% E-EPA on lipid and apolipoprotein profiles including total cholesterol (TC), non-high-density lipoprotein cholesterol (non-HDL-C), low density lipoprotein cholesterol (LDL-C), high density lipoprotein cholesterol (HDL-C), and […]; • 3. To determine the effect of >96% E-EPA on lipoprotein associated phospholipase A2 (Lp-PLA2) from baseline to week 12; • 4. To determine the effect of >96% E-EPA on low-density lipoprotein (LDL) particle number and size; • 5. To determine the effect of >96% E-EPA on oxidized LDL; • 6. To determine the effect of >96% E-EPA on fasting plasma glucose (FPG) and hemoglobin A1c (HbA1c); • 7. To determine the effect of >96% E-EPA on insulin resistance; • 8. To determine the effect of >96% E-EPA on high-sensitivity C-reactive protein (hsCRP); • 9. To determine the effects of >96% E-EPA 2 g daily and 4 g daily on the incorporation of fatty acids into red blood cell membranes and into plasma phospholipids; • 10. To explore the relationship between baseline fasting TG levels and the reduction in fasting TG levels; and • 11. To explore the relationship between changes of fatty acid concentrations in plasma and red blood cell membranes, and the reduction in fasting TG levels.
The primary efficacy variable for the double-blind treatment period was percent change in TG from baseline to Week 12 endpoint. […]

[1] = Diabetes No, Week 12 endpoint, MITT
[2] = Diabetes Yes, Week 12 endpoint, MITT
[3] = Non-statin Washout No, Week 12 endpoint, MITT
[4] = Non-statin Washout Yes, Week 12 endpoint, MITT
[5] = baseline TG tertile Highest (≥289.5 mg/dL), Week 12 endpoint, MITT
[6] = baseline TG tertile Lowest (<230.5 mg/dL), Week 12 endpoint, MITT
[7] = baseline TG tertile Middle (230.5 to <289.5 mg/dL), Week 12 endpoint, MITT
[8] = AMR101 4 g/d + statin, Week 12 endpoint, MITT
[9] = AMR101 4 g/d + statin, percent change from baseline to Week 12 endpoint, MITT
[10] = IPE 4 g/day (n = 216), 12 weeks, patients with lipoprotein data
[11] = IPE 4 g/day vs placebo, 12 weeks, Hodges-Lehmann median

CC/C=C\C/C=C\C/C=C\C/C=C\C/C=C\CCCC(=O)OCC [AMR101, ethyl eicosapentaenoate]
Non-HDL-C, Diff from pbo (Hodges-Lehmann median difference) (Atorva subgroup, MITT): −13.5 | Non-HDL-C, EOT (Week 12 endpoint) median (Atorva subgroup, MITT): 122.0 | LDL-C Median % chg from BL (Rosuva subgroup, MITT): −3.8% | LDL-C, Diff from pbo (Hodges-Lehmann median difference) (Rosuva subgroup, MITT): −14.8 | LDL-C, EOT (Week 12 endpoint) median (Rosuva subgroup, MITT): 82.5 | Non-HDL-C Median % chg from BL (Rosuva subgroup, MITT): −5.5% | Non-HDL-C, Diff from pbo (Hodges-Lehmann median difference) (Rosuva subgroup, MITT): −20.0 | Non-HDL-C, EOT (Week 12 endpoint) median (Rosuva subgroup, MITT): 118.0 | LDL-C Median % chg from BL (Simva subgroup, MITT): 1.5% | LDL-C, Diff from pbo (Hodges-Lehmann median difference) (Simva subgroup, MITT): −5.4 | LDL-C, EOT (Week 12 endpoint) median (Simva subgroup, MITT): 83.0 | Non-HDL-C Median % chg from BL (Simva subgroup, MITT): −4.3% | Non-HDL-C, Diff from pbo (Hodges-Lehmann median difference) (Simva subgroup, MITT): −11.1 | Non-HDL-C, EOT (Week 12 endpoint) median (Simva subgroup, MITT): 125.0 | LDL-C Median % chg from BL (Statin Potency High, MITT): 5.4% | LDL-C, Diff from pbo (Hodges-Lehmann median difference) (Statin Potency High, MITT): −2.9 | LDL-C, EOT (Week 12 endpoint) median (Statin Potency High, MITT): 82.0 | Non-HDL-C Median % chg from BL (Statin Potency High, MITT): −6.3% | Non-HDL-C, Diff from pbo (Hodges-Lehmann median difference) (Statin Potency High, MITT): −15.8 | Non-HDL-C, EOT (Week 12 endpoint) median (Statin Potency High, MITT): 118 | LDL-C Median % chg from BL (Statin Potency Low, MITT): 7.8% | LDL-C, Diff from pbo (Hodges-Lehmann median difference) (Statin Potency Low, MITT): 12.4 | LDL-C, EOT (Week 12 endpoint) median (Statin Potency Low, MITT): 84.5 | Non-HDL-C Median % chg from BL (Statin Potency Low, MITT): −1.4% | Non-HDL-C, Diff from pbo (Hodges-Lehmann median difference) (Statin Potency Low, MITT): 2.4 | Non-HDL-C, EOT (Week 12 endpoint) median (Statin Potency Low, MITT): 131 | LDL-C Median % chg from BL (Statin Potency Medium, MITT): −2.2% | LDL-C, Diff from pbo (Hodges-Lehmann median difference) (Statin Potency Medium, MITT): −10.0 | LDL-C, EOT (Week 12 endpoint) median (Statin Potency Medium, MITT): 84.0 | Non-HDL-C Median % chg from BL (Statin Potency Medium, MITT): −4.3% | Non-HDL-C, Diff from pbo (Hodges-Lehmann median difference) (Statin Potency Medium, MITT): −13.9 | Non-HDL-C, EOT (Week 12 endpoint) median (Statin Potency Medium, MITT): 124 | LDL-C Diff from pbo (median % chg, Hodges-Lehmann) [1]: −5.3% | LDL-C EOT Median [1]: 83.5 mg/dL | LDL-C Median % chg from BL [1]: 1.4% | Non-HDL-C Diff from pbo (median % chg, Hodges-Lehmann) [1]: −11.3′ % | Non-HDL-C EOT Median [1]: 126 mg/dL | Non-HDL-C Median % chg from BL [1]: −0.9% | LDL-C Diff from pbo (median % chg, Hodges-Lehmann) [2]: −6.3% | LDL-C EOT Median [2]: 83.0 mg/dL | LDL-C Median % chg from BL [2]: 2.0% | Non-HDL-C Diff from pbo (median % chg, Hodges-Lehmann) [2]: −14.4% | Non-HDL-C EOT Median [2]: 121 mg/dL | Non-HDL-C Median % chg from BL [2]: −5.5% | LDL-C Diff from pbo (median % chg, Hodges-Lehmann) [3]: −5.1% | LDL-C EOT Median [3]: 83.5 mg/dL | LDL-C Median % chg from BL [3]: 2.5% | Non-HDL-C Diff from pbo (median % chg, Hodges-Lehmann) [3]: −4.8% | Non-HDL-C EOT Median [3]: 122 mg/dL | Non-HDL-C Median % chg from BL [3]: −4.9% | LDL-C Diff from pbo (median % chg, Hodges-Lehmann) [4]: −7.5% | LDL-C EOT Median [4]: 80.0 mg/dL | LDL-C Median % chg from BL [4]: −1.4% | Non-HDL-C Diff from pbo (median % chg, Hodges-Lehmann) [4]: −14.4% | Non-HDL-C EOT Median [4]: 124 mg/dL | Non-HDL-C Median % chg from BL [4]: −5.4% | LDL-C Diff from pbo (median % chg, Hodges-Lehmann) [5]: 0% | LDL-C EOT Median [5]: 83.0 | LDL-C Median % chg from BL [5]: 4.8% | Non-HDL-C Diff from pbo (median % chg, Hodges-Lehmann) [5]: −17.6% | Non-HDL-C EOT Median [5]: 130 | Non-HDL-C Median % chg from BL [5]: −6.9% | LDL-C Diff from pbo (median % chg, Hodges-Lehmann) [6]: −12.2% | LDL-C EOT Median [6]: 83.0 | LDL-C Median % chg from BL [6]: −3.9% | Non-HDL-C Diff from pbo (median % chg, Hodges-Lehmann) [6]: −13.8% | Non-HDL-C EOT Median [6]: 118 | Non-HDL-C Median % chg from BL [6]: −2.0% | LDL-C Diff from pbo (median % chg, Hodges-Lehmann) [7]: −5.8% | LDL-C EOT Median [7]: 82.5 | LDL-C Median % chg from BL [7]: 2.1% | Non-HDL-C Diff from pbo (median % chg, Hodges-Lehmann) [7]: −9.5% | Non-HDL-C EOT Median [7]: 124 | Non-HDL-C Median % chg from BL [7]: −4.0% | HDL-C Week 12 EP Median (IQR) (AMR101 4 g/d + statin, MITT): 37.0 (13.0) mg/dL | LDL-C Week 12 EP Median (IQR) (AMR101 4 g/d + statin, MITT): 83.0 (31.0) mg/dL | Non-HDL-C Week 12 EP Median (IQR) (AMR101 4 g/d + statin, MITT): 122.0 (39.0) mg/dL | RLP-C Week 12 EP Median (IQR) (AMR101 4 g/d + statin, MITT): 10.0 (6.0) mg/dL | Total cholesterol Week 12 EP Median (IQR) (AMR101 4 g/d + statin, MITT): 162.0 (38.0) mg/dL | VLDL-C Week 12 EP Median (IQR) (AMR101 4 g/d + statin, MITT): 38.0 (22.0) mg/dL | VLDL-TG Week 12 EP Median (IQR) (AMR101 4 g/d + statin, MITT): 147.0 (88.0) mg/dL | HDL-C Percent change from Baseline Median (IQR) [8]: −1.0 (18.2) % | LDL-C Percent change from Baseline Median (IQR) [8]: 1.5 (26.6) % | Non-HDL-C Percent change from Baseline Median (IQR) [8]: −5.0 (21.3) % | RLP-C Percent change from Baseline Median (IQR) [8]: −24.0 (45.5) % | Total cholesterol Percent change from Baseline Median (IQR) [8]: −3.2 (16.8) % | VLDL-C Percent change from Baseline Median (IQR) [8]: −12.1 (47.9) % | VLDL-TG Percent change from Baseline Median (IQR) [8]: −19.2 (46.2) % | HDL-C Difference from placebo Estimated median [9]: −4.5% | LDL-C Difference from placebo Estimated median [9]: −6.2% | Non-HDL-C Difference from placebo Estimated median [9]: −13.6% | RLP-C Difference from placebo Estimated median [9]: −25.8% | Total cholesterol Difference from placebo Estimated median [9]: −12.0% | VLDL-C Difference from placebo Estimated median [9]: −24.4% | VLDL-TG Difference from placebo Estimated median [9]: −26.5% | HDL-C, Change From Baseline, % (median) [10]: −2.2% | HDL-C, End of Treatment (median) [10]: 36.5 mg/dL | LDL-C, Change From Baseline, % (median) [10]: 2.1% | LDL-C, End of Treatment (median) [10]: 83.0 mg/dL | Non-HDL-C, Change From Baseline, % (median) [10]: −5.1% | Non-HDL-C, End of Treatment (median) [10]: 122.0 mg/dL | HDL-C, Median Change From Baseline IPE 4 g/day vs Placebo, % [11]: −5.0% | LDL-C, Median Change From Baseline IPE 4 g/day vs Placebo, % [11]: −5.2% | Non-HDL-C, Median Change From Baseline IPE 4 g/day vs Placebo, % [11]: −13.5%
